Measured values published in ChEMBL document CHEMBL1201862, “PubChem BioAssay data set” (2004).
Active and inactive are the calls of the source. Rule as the data show it, for most assays here: actives have a measured EC50 and inactives only a lower limit.

Assays:
[1] = molecular target: T1, Corticotropin-releasing factor receptor 2/Corticotropin-releasing factor-binding protein (Homo sapiens, UniProt P24387+Q13324); assay: Dose Response confirmation of uHTS hits for small molecule antagonists of the CRF-binding protein and CRF-R2 receptor complex.; assay type: functional; details: read-out: IC50_Mean
T1 sequence (Q13324 whole entry): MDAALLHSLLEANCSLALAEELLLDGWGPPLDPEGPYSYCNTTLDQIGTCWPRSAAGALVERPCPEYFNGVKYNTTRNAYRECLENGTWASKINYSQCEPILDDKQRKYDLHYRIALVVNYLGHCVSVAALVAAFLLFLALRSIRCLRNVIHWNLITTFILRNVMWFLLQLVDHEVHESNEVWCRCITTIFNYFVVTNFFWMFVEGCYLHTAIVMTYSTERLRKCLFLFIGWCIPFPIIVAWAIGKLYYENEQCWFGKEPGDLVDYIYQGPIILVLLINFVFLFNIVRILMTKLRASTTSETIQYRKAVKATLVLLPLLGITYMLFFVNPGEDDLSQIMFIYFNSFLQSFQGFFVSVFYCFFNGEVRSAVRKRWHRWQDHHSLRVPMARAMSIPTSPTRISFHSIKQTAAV
T1 sequence (P24387 whole entry): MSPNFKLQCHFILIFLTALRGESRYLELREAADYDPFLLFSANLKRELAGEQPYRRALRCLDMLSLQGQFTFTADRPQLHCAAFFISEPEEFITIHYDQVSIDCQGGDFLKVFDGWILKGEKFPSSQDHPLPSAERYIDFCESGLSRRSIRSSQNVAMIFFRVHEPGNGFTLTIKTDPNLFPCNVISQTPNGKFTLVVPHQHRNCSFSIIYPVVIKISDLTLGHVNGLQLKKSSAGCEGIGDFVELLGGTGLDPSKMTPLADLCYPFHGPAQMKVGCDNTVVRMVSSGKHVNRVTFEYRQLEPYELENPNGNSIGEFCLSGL

[2] = molecular target: T1, Corticotropin-releasing factor receptor 2/Corticotropin-releasing factor-binding protein; assay: activators of CRF receptor 2 with binding protein – uHTS hits, confirmation (AID 602473); assay type: functional; details: read-out: EC50_Mean
[3] = molecular target: T2, Heat shock factor protein 1 (Mus musculus, UniProt P38532); assay: HSF1 potentiators in luciferase reporter cells, confirmation, cell-based, NIH3T3, luminescence, dose retest (AID 435004); assay type: functional;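 also: stress induced by proteasome inhibitor MG132 added 30 min after compound; luciferase reporter driven by HSF1 response element in NIH3T3 cells; actives raise luminescence as potentiators of the MG132 stress response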
T2 sequence (P38532 whole entry): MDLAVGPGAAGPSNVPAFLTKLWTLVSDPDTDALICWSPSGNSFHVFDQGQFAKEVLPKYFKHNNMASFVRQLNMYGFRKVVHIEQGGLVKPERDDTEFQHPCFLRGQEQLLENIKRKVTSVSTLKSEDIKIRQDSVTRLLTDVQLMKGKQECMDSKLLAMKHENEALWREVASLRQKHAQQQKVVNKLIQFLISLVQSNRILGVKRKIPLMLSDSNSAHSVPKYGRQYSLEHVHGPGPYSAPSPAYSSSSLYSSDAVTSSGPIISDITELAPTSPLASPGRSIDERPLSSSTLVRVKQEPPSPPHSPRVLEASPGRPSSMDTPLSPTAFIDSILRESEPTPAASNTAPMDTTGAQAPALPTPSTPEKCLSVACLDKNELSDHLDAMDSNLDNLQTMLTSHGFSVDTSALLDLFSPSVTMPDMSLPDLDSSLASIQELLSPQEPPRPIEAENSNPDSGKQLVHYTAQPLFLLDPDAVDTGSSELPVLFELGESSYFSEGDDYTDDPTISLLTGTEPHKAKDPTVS

[4] = molecular target: T3, Replicative DNA helicase DnaB (Mycobacterium tuberculosis, UniProt P9WMR3); assay: DnaB intein splicing inhibitors, dose response, biochemical, cell-free fluorescence (AID 449749); assay type: functional
T3 sequence (P9WMR3 whole entry): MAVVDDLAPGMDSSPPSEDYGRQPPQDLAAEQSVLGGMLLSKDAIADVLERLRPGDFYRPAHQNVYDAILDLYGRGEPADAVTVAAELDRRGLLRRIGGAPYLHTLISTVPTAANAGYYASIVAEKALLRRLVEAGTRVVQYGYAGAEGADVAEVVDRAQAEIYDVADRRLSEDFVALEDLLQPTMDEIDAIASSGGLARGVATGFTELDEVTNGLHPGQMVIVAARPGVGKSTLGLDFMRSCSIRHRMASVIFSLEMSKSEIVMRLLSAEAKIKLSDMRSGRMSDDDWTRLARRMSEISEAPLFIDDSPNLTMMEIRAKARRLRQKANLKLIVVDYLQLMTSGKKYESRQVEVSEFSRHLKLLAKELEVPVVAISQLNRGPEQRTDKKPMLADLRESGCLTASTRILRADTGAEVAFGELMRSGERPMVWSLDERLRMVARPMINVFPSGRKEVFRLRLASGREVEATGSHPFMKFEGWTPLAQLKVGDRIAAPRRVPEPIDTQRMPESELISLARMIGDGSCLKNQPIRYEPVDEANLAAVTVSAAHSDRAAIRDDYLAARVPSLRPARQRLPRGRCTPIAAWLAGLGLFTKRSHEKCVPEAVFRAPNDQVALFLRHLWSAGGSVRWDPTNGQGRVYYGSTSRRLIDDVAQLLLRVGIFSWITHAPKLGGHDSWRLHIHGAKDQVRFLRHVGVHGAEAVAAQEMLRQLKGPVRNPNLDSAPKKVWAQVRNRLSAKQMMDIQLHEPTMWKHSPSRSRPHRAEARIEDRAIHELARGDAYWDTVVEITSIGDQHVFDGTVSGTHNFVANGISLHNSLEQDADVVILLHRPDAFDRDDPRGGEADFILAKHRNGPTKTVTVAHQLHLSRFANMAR

Protein RecA = molecular target: T4, Protein RecA (Mycobacterium tuberculosis, UniProt P9WHJ3); assay: Fluorescence Cell-Free Homogeneous Dose Retest to Identify Inhibitors of RecA-Intein Splicing Activity. [Related pubchem assays (depositor defined):AID2097, AID2223, AID489010, AID492950]; assay type: functional
T4 sequence (P9WHJ3 whole entry): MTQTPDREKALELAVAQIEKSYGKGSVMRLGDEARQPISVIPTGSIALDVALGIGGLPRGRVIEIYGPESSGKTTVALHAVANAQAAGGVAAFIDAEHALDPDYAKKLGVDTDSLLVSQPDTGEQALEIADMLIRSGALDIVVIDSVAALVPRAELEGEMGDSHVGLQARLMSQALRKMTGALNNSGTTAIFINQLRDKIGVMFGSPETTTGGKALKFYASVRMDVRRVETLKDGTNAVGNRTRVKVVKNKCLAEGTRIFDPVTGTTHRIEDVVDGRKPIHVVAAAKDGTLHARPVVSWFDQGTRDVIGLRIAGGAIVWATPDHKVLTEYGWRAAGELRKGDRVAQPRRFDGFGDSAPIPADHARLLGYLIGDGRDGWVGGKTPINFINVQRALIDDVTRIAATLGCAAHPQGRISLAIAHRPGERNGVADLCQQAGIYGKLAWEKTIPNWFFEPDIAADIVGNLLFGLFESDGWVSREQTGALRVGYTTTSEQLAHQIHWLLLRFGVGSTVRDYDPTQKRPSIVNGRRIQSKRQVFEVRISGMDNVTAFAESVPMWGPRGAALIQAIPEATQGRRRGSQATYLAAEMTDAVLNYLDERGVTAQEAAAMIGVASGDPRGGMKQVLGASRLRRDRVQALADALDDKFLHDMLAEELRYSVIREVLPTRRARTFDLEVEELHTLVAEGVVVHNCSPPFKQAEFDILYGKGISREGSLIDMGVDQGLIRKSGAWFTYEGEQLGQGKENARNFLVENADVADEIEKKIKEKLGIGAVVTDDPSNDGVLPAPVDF

[5] = molecular target: Induced myeloid leukemia cell differentiation protein Mcl-1 (Homo sapiens, UniProt Q07820); assay type: functional
BJ [6] = assay: cytotoxicity toward BJ-TERT fibroblasts, dose response, cell-based, RAS-independent, luminescence (AID 1933); assay type: functional; details: Homo sapiens
BJ [7] = assay: cells; assay type: functional, cell-based; details: Homo sapiens
BJ [8] = assay: cytotoxicity toward BJ-TERT-LT-ST fibroblasts, dose response, cell-based, RAS-independent, luminescence (AID 1935); assay type: functional; details: Homo sapiens;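 also: BJ fibroblasts immortalized with TERT plus LT and ST oncogenes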
[9] = cytotoxicity toward DRD oncogenic fibroblasts, dose response, cell-based, non-viral oncogenic, luminescence (AID 1934); assay type: functional; details: Homo sapiens
[10] = NIH-3T3 fibroblast cytotoxicity, dose response, cytotoxicity control, cell-based, fluorescence, Alamar Blue, secondary assay (AID 2327); assay type: functional;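 also: NIH-3T3 mouse fibroblasts cultured with fluconazole at 8 µg/mL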
[11] = C. albicans growth with fluconazole, confirmation, fluorescence, retest (AID 2467); assay type: functional, cell-based
Genome polyprotein = Genome polyprotein (dengue virus type 2, UniProt P29990); assay: Dengue-2 NS5 methyltransferase inhibitors, primary screen, biochemical, confirmation dose response (AID 588689); assay type: functional
[12] = P. falciparum Dd2 growth inhibitors, dose response, SYBR Green, cherry-picked samples (AID 1159567); assay type: functional, cell-based

Chain of Induced myeloid leukemia cell differentiation protein Mcl-1 (Q07820 whole entry): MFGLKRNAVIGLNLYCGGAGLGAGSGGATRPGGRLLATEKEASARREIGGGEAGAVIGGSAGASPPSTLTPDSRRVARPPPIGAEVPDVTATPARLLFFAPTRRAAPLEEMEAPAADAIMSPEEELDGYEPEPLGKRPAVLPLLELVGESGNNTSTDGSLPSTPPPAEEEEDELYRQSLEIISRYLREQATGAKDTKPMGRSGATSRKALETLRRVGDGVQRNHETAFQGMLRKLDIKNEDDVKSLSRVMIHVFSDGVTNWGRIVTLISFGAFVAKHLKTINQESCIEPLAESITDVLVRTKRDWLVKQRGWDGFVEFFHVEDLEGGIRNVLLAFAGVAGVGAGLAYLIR
Chain of Genome polyprotein (P29990 2492-3391 limits assumed): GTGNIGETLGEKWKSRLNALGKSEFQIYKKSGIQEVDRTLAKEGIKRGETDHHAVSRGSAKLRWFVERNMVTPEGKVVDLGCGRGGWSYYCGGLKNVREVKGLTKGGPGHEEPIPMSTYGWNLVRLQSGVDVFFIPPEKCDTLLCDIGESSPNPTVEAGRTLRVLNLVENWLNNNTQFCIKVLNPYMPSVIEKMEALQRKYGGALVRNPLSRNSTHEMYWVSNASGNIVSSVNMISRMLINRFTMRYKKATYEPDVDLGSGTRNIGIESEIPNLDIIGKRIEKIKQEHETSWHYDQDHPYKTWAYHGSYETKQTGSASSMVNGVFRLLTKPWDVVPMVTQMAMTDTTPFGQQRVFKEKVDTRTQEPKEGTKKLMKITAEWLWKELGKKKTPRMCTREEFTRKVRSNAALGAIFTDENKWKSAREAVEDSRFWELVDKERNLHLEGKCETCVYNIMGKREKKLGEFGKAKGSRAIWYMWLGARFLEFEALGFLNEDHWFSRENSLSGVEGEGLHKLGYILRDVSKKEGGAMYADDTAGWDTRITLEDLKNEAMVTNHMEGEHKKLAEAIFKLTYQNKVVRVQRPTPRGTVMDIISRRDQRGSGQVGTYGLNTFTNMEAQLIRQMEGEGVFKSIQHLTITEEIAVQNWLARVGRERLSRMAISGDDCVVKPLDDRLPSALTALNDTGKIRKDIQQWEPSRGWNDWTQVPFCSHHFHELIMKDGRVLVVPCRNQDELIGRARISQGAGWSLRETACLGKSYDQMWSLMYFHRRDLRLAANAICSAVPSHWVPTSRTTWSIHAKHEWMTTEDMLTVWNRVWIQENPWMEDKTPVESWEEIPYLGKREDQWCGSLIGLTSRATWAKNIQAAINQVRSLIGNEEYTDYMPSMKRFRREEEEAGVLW

Structure (SMILES): C=C(C)C(=O)Oc1ccc(N2C(=O)[C@@H]3C4C=CC(C4)[C@@H]3C2=O)cc1
- IC50 [1]: > 47.1 µM (inactive)
- EC50 [2]: > 53 µM (inactive)

Structure (SMILES): COc1ccc(N2C(=O)C(Cl)=C(Oc3cccc(OC)c3)C2=O)cc1
- EC50 [3]: 1.84 µM (active)
- AC50 [4]: 18.9 µM (active)
- EC50 (Protein RecA): 10.7 µM (active)

Structure (SMILES): CCN(c1ccc(NC(=O)COC(=O)c2cc3ccccc3oc2=O)cc1)C(C)C
- IC50 [5]: 25.3 µM (not active)

Structure (SMILES): c1ccc(-c2cnnc(SCc3cn4cccnc4n3)n2)cc1
- EC50 (BJ [6]): > 150 µM (not active)
- EC50 (BJ [7]): > 150 µM (inconclusive)
- EC50 (BJ [8]): > 150 µM (inconclusive)
- EC50 [9]: 24.9 µM (active)

Structure (SMILES): Cc1noc(C)c1COC(=O)c1ccccc1Oc1ccccc1
- EC50 [3]: > 260 µM (inactive)

Structure (SMILES): COc1ccc(C(CC(=O)c2ccc(C)cc2)C(C#N)C#N)cc1OC (stereo unspecified)
- EC50 [3]: 5.54 µM (active)
- AC50 [4]: 11.4 µM (active)
- EC50 (Protein RecA): 4.79 µM (active)

Structure (SMILES): CC(C)c1cc(N2CCC(=O)NC2=O)cc(C(=O)O)c1O
- IC50 [1]: > 47.1 µM (inactive)
- EC50 [2]: > 53 µM (inactive)

Structure (SMILES): Cc1ccc2nc(NCc3ccccc3)c(C=O)c(=O)n2c1
- EC50 [3]: > 260 µM (inactive)

Structure (SMILES): CCCc1nc2ccc(NC(=O)c3cccs3)cc2c(=O)n1Cc1ccccc1Cl
- EC50 [3]: > 260 µM (inactive)

Structure (SMILES): CC1CCCCN1C(C(=O)O)c1ccccc1 (stereo unspecified)
- IC50 [1]: > 47.1 µM (inactive)
- EC50 [2]: > 53 µM (inactive)

Structure (SMILES): CCOc1ccc(N2CC(C(=O)NCc3nnnn3-c3ccc(C)c(C)c3)CC2=O)cc1 (stereo unspecified)
- IC50 [1]: > 47.1 µM (inactive)
- EC50 [2]: > 53 µM (inactive)

Structure (SMILES): CCC(C)NS(=O)(=O)c1ccc(OCC(=O)NCc2ccccn2)cc1 (stereo unspecified)
- IC50 [1]: > 47.1 µM (inactive)
- EC50 [2]: > 53 µM (inactive)

Structure (SMILES): CC1CCN(c2ccc(NC(=O)Cc3ccccc3)cc2)CC1
- IC50 [5]: 5.35 µM (not active)

Structure (SMILES): O=C(CCN1C(=O)/C(=C/c2ccc(Cl)cc2)SC1=S)Nc1cccnc1
- EC50 (BJ [6]): 14.9 µM (active)
- EC50 (BJ [7]): > 150 µM (not active)
- EC50 (BJ [8]): > 150 µM (not active)
- EC50 [9]: 24.7 µM (active)

Structure (SMILES): Nc1ccc2c(c1Cl)C(=O)c1ccc(N)c(Cl)c1C2=O
- IC50 [5]: 2.76 µM (active)

Structure (SMILES): CC(C)c1ccc2c(c1)[C@H]1OCC[C@H]1[C@@H](c1cccs1)N2
- EC50 [3]: > 260 µM (inactive)

Structure (SMILES): COc1ccc(OC)c(N(CC(=O)N2CCC(C)CC2)S(=O)(=O)c2ccccc2)c1
- EC50 [3]: > 260 µM (inactive)

Structure (SMILES): O=C(CSc1nnc(-c2ccco2)n1Cc1ccccc1)OC1CCCCC1
- EC50 [10]: > 150 µM (inactive)
- EC50 [11]: > 38 µM (not active)
- EC50 [3]: 35.8 µM (active)

Structure (SMILES): Cc1c(-c2nnc(S)n2-c2ccc(C(F)(F)F)cc2)nnn1-c1ccccc1
- EC50 [3]: > 260 µM (inactive)

Structure (SMILES): COc1cc(C(=O)NCCc2ccc(F)cc2)ccc1OCC(=O)N1CCOCC1
- EC50 [3]: > 260 µM (inactive)

Structure (SMILES): CC(C)c1ccc(N(C(=O)CNC(=O)c2ccco2)C(C(=O)NC2CCCC2)c2ccncc2)cc1 (stereo unspecified)
- EC50 [3]: > 260 µM (inactive)

Structure (SMILES): Cc1ccc(NS(=O)(=O)c2ccc(C(=O)Nc3nncs3)cc2)cc1
- IC50 [1]: > 47.1 µM (inactive)
- EC50 [2]: > 53 µM (inactive)

Structure (SMILES): COC1=CC(=O)C(O)=C(CCCCCCC/C=C/CCCCCCCC2=C(O)C(=O)C=C(OC)C2=O)C1=O
- EC50 [10]: > 160 µM (inactive)
- EC50 [11]: > 38 µM (not active)
- AC50 [4]: 2.6 µM (active)
- EC50 (Protein RecA): 2.13 µM (active)
- IC50 (Genome polyprotein): 10.8 µM (active)

Structure (SMILES): COc1ccccc1CNC(=O)CCc1nnc2ccc(NCCCN3CCCC3=O)nn12
- IC50 [1]: > 47.1 µM (inactive)
- EC50 [2]: > 53 µM (inactive)

Structure (SMILES): O=C(Cc1ccccn1)N1CCCCN2[C@@H](CO)[C@@H](c3ccc(C#Cc4ccccc4)cc3)[C@@H]2C1
- AC50 [12]: 4.71 µM (active)

Structure (SMILES): COc1ccc2c3c(n(C)c2c1)[C@@H](CO)N(C(=O)c1ccc(F)cc1)CC31CN(CC2CCOCC2)C1
- AC50 [12]: 12.1 µM (active)

Structure (SMILES): CO[C@@H]1CN(C)C(=O)c2cc(NC(=O)Cc3ccccc3)ccc2OC[C@H](C)N(C(=O)c2ccccc2F)C[C@@H]1C
- AC50 [12]: 7.66 µM (active)

Structure (SMILES): COc1ccc(C#Cc2ccc3c(c2)[C@H]2[C@H](CCN2C(=O)c2ccccn2)[C@@H](CO)N3)cc1
- AC50 [12]: 3.75 µM (active)
